Laboratory results from the NIST ThermoML archive (doi:10.1016/j.fluid.2012.01.008).
Numbers after ± are expanded uncertainties.

Details: 313.15 K; Liquid; Closed cell (Static) method

CCCCCCC [heptane]
vapor or sublimation pressure: 12.34 ± 0.03 kPa

Cc1ccccc1 [toluene]
vapor or sublimation pressure: 7.886 ± 0.022 kPa
